Measurements as given in patent US8361510B2, “Nanogels for cellular delivery of therapeutics” (Georgia Tech Research Corporation, priority 2008, dated 2013).
Where no end group is shown, it is not given here.

Tests used:
Format in all cases: cell-based
[1] = system: Hey cells; assay: Flow cytometry of nanogel binding/uptake; conditions: 0.8 mg/mL nanogels, four hours
Procedure: Flow cytometry. Hey cells were plated at 2.5×10^5 cells/well in a 12-well, cell culture plate. Cells were allowed to adhere overnight in an incubator at 37° C. in a 5% CO2 atmosphere. Cells were washed, and fresh medium was added containing YSA-pNIPMAm or SCR-pNIPMAm nanogels at a concentration of 0.8 mg/mL and incubated for four hours. Following incubation, the cells were washed with PBS and removed from the plate by Trypsin-EDTA treatment. The cells were washed with PBS and fixed with 2% (v/v) paraformaldehyde. Cells were analyzed using a LSR Flow Cytometer (BD Biosciences). Data analysis was carried out using FlowJo software.

[2] = system: Hey cells; assay: Trypan blue exclusion assay
Procedure: Toxicity Studies—Trypan blue exclusion assay. Hey cells were plated onto an 8-well chamber slide (1×10^4 cells/well) and allowed to adhere overnight at 37° C. and 5% CO2. The media was removed, the wells washed with PBS, and the medium replaced. PNIPMAm nanogels, YSA-conjugated nanogels, and SCR-conjugated nanogels were added to cells and incubated for 72 h. Untreated cells were used as controls. After 72 h, the cells washed with PBS, and a 1:1 solution of trypan blue was added to each well. After 1 min, the trypan blue was removed, the cells were washed with PBS, fixed with 2% (v/v) paraformaldehyde, and air dried. Each well was then viewed via bright field microscopy to determine the number of stained (dead) versus unstained cells. Five fields were viewed for each treatment.

[3] = system: EGFR; assay: EGFR expression by immunoblotting in Hey cells; conditions: Example 2
Procedure: Immunoblotting. Hey cells were plated into 6-well plates (5×10^5/well) and allowed to adhere overnight at 37° C., 5% CO2. The cells were lysed with 100 μL of lysis buffer (50 mM Tris-HCl, pH 7.5, 150 mM NaCl, 2 mM EDTA (Fisher), 2 mM EGTA (Fisher), 1 mM sodium orthovanadate, 2.5 mM sodium pyrophosphate, 1 mM β-gycerolphosphate, 1 mM phenylmethanesulfonyl fluoride, 10 μg/mL aprotinin, 10 μg/mL leupeptin, 1% Triton X-100, and 5% glycerol), and the cell lysates sonicated four times for five seconds each. The lysates were cleared by centrifugation at 11,000×g rcf for […] at 4° C. Cell lysates were prepared for analysis by the addition of an equal volume of Laemmli 2× sample buffer. The samples were heated to 95° C. for […] to denature the proteins. The proteins were separated on a 10% SDS-PAGE gel and transferred onto nitrocellulose. The blots were blocked with either 5% nonfat dry milk (NFDM) or 5% bovine serum albumin (BSA) in 10 mM Tris-buffered saline, pH 7.5 plus 1% Tween 20 (TBST, BioRad) for 1 hour at room temperature. The blots were probed with anti-EGFR antibody (Cell Signaling, Danvers, Mass.; cat. no. 4405) or with a β-actin antibody (Millipore, Billerica, Mass.; Mab1501) diluted in 5% NFDM or 5% BSA overnight, with shaking at 4° C. For EphA2 detection, the blots were probed with an anti-EphA2 polyclonal antibody (Santa Cruz Biotechnology, Santa Cruz, Calif.; sc-294). The blots were washed three times with TBST and probed with goat anti-rabbit IgG (Santa Cruz, sc-2004) or with goat anti-mouse IgG (Santa Cruz, sc-2005) linked to horseradish peroxidase (HRP). Bands were visualized on film (Pierce) using the ECL reagent, SuperSignal West Pico™ (Pierce).
As described above, we chose siRNA targeting EGFR; knockdown of this receptor is non-lethal, but has clinical relevance in the treatment of drug resistant ovarian carcinomas. To determine if we could effectively knockdown EGFR in vitro, EGFR siRNA was encapsulated at a concentration of 16.6 μg of EGFR siRNA/mg of nanogels, using the loading technique described above. […]

[4] = system: Hey cells; assay: Chemosensitization to docetaxel (Tox8), Hey cells; conditions: control treatments
Procedure: Treatment with docetaxel. Hey or SK-OV-3 cells were plated in 96-well cell culture plates at a concentration of 1×10^4 cells/well. Hey or SK-OV-3 cells were subjected to nanogel delivery of siRNA at nanogel concentrations of 1000, 100, 10, and 1 μg/mL. Forty-eight hours after siRNA delivery, docetaxel was added to Hey or SK-OV-3 cells at concentrations ranging from 0.01-1000 nM. Treatment wells were set up in triplicate, and the cells were incubated with docetaxel for an additional 4 days. After treatment, the cells were washed with PBS, and 100 μL of medium was added back to the wells. To this, 10 μL of Tox8 was added to determine cell viability. The cells were incubated with the Tox8 reagent according to the manufacturer's instructions. The fluorescence was measured ([…]) by a Spectramax Gemini Fluorescence Microplate Reader (Molecular Devices, Sunnyvale, Calif.). Wells without cells but with Tox8 were used as controls and subtracted from all treatments as background. Each experiment was performed in duplicate.
Statistical analysis. Statistical analysis of the immunoblot data was performed using a non-parametric ANOVA (Kruskal Wallis) test. If significance was indicated, a Dunn's post-test was used to determine significance between groups. […]

| Substance | cell fluorescence relative to cell autofluorescence [1] | blue (dead) cells [2] | EGFR expression of control treatments compared to untreated cells [3] | sensitivity to docetaxel versus untreated controls [4] |
| --- | --- | --- | --- | --- |
| SCR-conjugated nanogels: nanogels bearing the scrambled peptide DYPSMAMYSPSVC (SEQ ID NO 2), control (also: conjugated to nanogels) [reference compound] | only slightly greater than the cell autofluorescence background signal | not observed |  |  |
| YSAYPDSVPMMSC (listed as Homo sapiens) [YSA peptide] |  |  | diminished EGFR expression | increased sensitivity to docetaxel |
